The IC50 is the concentration that inhibits the measured activity by half.

Test [1] in a line: Inhibition of GST-tagged recombinant mouse CLK1/STY expressed in Escherichia coli using RSPSYGRSRSRSRSRSRSRSRSNSRSRSY as substrate in presence of [gamma-32P]ATP by a liquid scintillation counter method.
Test [2] can be described thus: Inhibition of GST-tagged recombinant mouse CLK2 expressed in Escherichia coli using RSPSYGRSRSRSRSRSRSRSRSNSRSRSY as substrate in presence of [gamma-32P]ATP by a liquid scintillation counter method.
Test [3] deals with T1, Dual specificity protein kinase CLK4 (Homo sapiens, UniProt Q9HAZ1). Nature of the test: Inhibition of CLK4 (unknown origin) assessed as reduction in SRSF1 phosphorylation.
The target in test [4] is T2, Dual specificity protein kinase CLK1 (Homo sapiens, UniProt P49759). Kind of test: Inhibition of CLK1 (unknown origin) assessed as reduction in SRSF10 phosphorylation.
Test [5] has as its target T1, Dual specificity protein kinase CLK4. Nature of the test: Inhibition of CLK4 (unknown origin) assessed as reduction in SRSF10 phosphorylation.
For test [6], the target named is T2, Dual specificity protein kinase CLK1. Nature of the test: Inhibition of CLK1 (unknown origin).
The target of test [7] is T1, Dual specificity protein kinase CLK4. Nature of the test: Inhibition of CLK4 (unknown origin).
The target is the same in test [8]. Nature of the test: Inhibition of human CLK4 (146 to 480 residues) expressed in Escherichia coli BL21 (DE3) Turner using MBP as substrate incubated for 60 mins in presence of [gamma-32P]ATP by radiometric kinase assay.

T1 sequence (Q9HAZ1 whole entry): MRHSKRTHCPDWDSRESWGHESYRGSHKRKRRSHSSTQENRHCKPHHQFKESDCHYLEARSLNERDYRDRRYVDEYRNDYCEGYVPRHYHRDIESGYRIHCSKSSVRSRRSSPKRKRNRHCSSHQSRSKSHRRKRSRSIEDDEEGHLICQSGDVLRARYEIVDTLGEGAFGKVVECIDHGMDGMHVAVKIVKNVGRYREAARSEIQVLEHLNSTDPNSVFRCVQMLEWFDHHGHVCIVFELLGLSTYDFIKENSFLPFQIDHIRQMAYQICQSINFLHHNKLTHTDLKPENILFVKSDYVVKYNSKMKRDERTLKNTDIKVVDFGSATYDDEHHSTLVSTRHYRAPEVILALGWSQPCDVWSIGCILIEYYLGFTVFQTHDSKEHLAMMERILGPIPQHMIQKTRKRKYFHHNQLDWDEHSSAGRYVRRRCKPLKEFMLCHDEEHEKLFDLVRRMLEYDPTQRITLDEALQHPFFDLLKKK
T2 sequence (P49759 whole entry): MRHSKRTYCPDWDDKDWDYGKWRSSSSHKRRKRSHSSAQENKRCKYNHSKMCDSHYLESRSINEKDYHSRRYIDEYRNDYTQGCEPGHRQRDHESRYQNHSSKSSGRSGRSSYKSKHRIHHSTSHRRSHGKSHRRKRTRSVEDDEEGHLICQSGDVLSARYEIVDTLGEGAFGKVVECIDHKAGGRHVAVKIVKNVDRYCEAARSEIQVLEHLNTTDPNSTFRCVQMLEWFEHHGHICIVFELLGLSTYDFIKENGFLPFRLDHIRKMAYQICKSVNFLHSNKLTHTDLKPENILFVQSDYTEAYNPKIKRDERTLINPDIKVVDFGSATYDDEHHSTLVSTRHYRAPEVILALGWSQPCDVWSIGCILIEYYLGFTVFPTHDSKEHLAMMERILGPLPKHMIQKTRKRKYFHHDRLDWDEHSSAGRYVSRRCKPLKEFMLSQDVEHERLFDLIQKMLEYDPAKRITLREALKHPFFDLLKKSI

In the case of `CCN1/C(=C/C(C)=O)Sc2ccc(OC)cc21`, the figures for the concentration for half-maximal inhibition (IC50) in test [1] and in test [2] were 20 nM and 200 nM, respectively.

Consider `O=C(Nc1ccc2[nH]cnc2c1)c1csc(Nc2ccccc2)n1`, for which the concentration for half-maximal inhibition (IC50) in test [3] is 24 nM; in test [4] it was 44 nM; in test [5], 14 nM; in test [6], 44 nM; in test [7] it was 14 nM.

Consider `O=C(O)c1ccc2c(c1)nc(Nc1cccc(Cl)c1)c1ccncc12` [SILMITASERTIB], for which the IC50 in test [8] was 11 nM.
